Data published in patent US8552063B2, “Composition for accelerated production of collagen” (E.S.L.I. Limited, priority 2008, dated 2013).

System: human dermal fibroblasts
Test: Collagen I secretion, CODTA combined with SDA (Example 3)
Format: cell-based
Conditions: in combination with Stearidonic Acid base; relative to diluent (vehicle) alone
Experimental: This example provides outline results of the effect of two test active ingredient mixes on collagen I secretion by human dermal fibroblasts. Human dermal fibroblasts (originally derived from explant cultures of normal human breast dermis) were cultured under standard conditions. Two test combinations of actives (CODTA's when combined with SDA) were initially screened for cytotoxicity before testing.
Collagen I levels were determined and are expressed as a percentage of the levels observed in samples from cultures treated with diluent (vehicle) alone.
Pepsin digests of both cell culture medium, and the cell culture surface (plate) from each treated culture well were analysed.

Compound	Percentage increase in collagen I secretion
CCCCC\C=C/C=C/C=C/CCCCCCC(=O)O [Calendic Acid, Calendic acid]	187%
CCCCC\C=C/C=C/C=C\CCCCCCC(=O)O [Jacaric Acid, Jacaric acid]	278%
